# What was measured:
# Assay type in all cases: cell-based
# [1] = biological target: T1, AgIR75k (Anopheles coluzzii, UniProt A0A6E8VT06); test: two-electrode voltage clamp, Xenopus oocytes, concentration-response
# T1 construct: with AgIr8a (co-receptor)
# T1 sequence (A0A6E8VT06 26-675): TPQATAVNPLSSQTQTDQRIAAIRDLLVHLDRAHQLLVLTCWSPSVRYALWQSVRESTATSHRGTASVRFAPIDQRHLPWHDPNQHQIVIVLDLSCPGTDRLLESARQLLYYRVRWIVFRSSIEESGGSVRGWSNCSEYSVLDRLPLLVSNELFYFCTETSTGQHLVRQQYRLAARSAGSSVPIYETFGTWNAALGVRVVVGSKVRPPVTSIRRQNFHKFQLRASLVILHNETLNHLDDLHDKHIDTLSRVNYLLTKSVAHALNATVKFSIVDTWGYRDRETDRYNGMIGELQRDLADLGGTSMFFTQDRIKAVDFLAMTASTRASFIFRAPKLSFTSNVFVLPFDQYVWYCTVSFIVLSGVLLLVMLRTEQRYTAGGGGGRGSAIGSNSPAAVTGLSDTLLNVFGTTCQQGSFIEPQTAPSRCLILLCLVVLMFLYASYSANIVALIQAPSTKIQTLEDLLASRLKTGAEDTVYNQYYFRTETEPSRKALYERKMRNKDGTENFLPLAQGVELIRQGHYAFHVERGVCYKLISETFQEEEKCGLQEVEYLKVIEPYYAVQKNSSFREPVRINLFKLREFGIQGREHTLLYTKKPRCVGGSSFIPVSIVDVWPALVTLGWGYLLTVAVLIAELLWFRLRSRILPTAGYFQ
# T1 sequence (A0A6E8W0A6 1-828 partner): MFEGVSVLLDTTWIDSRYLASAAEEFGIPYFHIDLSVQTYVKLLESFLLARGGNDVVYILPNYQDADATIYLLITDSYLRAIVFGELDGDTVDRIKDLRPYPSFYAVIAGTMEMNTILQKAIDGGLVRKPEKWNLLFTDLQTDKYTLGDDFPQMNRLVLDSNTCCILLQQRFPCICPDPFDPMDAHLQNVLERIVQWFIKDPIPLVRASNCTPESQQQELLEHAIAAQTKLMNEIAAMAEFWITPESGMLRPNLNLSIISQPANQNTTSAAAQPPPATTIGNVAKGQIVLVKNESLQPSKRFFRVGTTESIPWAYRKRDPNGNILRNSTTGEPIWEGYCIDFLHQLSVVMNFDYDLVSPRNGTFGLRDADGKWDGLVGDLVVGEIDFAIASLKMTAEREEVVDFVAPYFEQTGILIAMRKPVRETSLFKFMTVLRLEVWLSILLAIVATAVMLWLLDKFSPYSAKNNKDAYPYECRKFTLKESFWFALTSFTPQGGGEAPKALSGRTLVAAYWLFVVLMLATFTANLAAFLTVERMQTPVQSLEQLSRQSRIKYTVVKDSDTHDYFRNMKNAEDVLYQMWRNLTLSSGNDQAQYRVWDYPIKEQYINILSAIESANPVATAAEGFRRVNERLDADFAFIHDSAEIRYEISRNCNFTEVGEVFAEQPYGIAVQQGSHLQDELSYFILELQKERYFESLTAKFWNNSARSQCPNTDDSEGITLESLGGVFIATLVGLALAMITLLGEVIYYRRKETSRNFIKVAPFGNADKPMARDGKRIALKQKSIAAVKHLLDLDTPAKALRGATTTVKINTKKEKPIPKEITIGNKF
# [2] = biological target: T2, AgIR41c (Anopheles coluzzii, UniProt A0A6E8W7H2); test: as above
# T2 construct: with AgIr25a and AgIr76b (co-receptors)
# T2 sequence (A0A6E8W7H2 1-669, one chain of several): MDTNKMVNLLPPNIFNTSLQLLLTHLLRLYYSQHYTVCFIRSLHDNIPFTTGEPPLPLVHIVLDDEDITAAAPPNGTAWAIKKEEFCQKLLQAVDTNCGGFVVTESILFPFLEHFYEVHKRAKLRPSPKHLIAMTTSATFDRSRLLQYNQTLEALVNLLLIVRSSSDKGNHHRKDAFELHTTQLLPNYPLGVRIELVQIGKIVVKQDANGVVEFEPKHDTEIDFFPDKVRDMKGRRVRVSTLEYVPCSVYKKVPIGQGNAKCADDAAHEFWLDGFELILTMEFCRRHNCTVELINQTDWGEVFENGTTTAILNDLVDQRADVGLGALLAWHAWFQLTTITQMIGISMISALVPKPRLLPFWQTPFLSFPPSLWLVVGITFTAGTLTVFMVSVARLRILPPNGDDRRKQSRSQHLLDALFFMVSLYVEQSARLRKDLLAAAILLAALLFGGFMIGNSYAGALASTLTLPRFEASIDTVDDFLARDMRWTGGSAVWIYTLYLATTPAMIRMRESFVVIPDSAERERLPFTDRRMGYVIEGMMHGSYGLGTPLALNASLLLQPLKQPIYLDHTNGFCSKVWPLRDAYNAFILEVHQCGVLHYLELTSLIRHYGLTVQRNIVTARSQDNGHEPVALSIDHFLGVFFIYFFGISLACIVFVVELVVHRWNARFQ
# [3] = biological target: T3, AgIR41a (Anopheles coluzzii, UniProt A0A6E8V5R5); test: as above
# T3 construct: with AgIr25a and AgIr76b (co-receptors)
# T3 sequence (A0A6E8V5R5 1-637): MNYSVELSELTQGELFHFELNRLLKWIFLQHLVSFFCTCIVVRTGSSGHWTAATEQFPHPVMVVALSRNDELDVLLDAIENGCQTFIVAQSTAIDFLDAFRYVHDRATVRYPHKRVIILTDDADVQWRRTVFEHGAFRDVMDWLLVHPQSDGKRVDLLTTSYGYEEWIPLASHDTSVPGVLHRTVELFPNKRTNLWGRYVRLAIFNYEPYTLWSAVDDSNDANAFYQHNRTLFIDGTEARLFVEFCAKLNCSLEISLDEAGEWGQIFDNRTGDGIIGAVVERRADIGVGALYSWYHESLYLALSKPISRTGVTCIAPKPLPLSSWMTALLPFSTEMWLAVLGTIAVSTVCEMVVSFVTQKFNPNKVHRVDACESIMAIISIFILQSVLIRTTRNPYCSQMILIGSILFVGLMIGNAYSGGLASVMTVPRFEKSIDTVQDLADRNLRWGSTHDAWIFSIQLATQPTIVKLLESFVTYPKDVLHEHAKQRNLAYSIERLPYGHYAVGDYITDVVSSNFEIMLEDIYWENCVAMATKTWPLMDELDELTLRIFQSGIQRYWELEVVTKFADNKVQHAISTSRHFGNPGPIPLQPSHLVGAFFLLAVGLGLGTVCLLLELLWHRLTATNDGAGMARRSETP
# T3 sequence (A0A1S4H3H9 28-946 partner): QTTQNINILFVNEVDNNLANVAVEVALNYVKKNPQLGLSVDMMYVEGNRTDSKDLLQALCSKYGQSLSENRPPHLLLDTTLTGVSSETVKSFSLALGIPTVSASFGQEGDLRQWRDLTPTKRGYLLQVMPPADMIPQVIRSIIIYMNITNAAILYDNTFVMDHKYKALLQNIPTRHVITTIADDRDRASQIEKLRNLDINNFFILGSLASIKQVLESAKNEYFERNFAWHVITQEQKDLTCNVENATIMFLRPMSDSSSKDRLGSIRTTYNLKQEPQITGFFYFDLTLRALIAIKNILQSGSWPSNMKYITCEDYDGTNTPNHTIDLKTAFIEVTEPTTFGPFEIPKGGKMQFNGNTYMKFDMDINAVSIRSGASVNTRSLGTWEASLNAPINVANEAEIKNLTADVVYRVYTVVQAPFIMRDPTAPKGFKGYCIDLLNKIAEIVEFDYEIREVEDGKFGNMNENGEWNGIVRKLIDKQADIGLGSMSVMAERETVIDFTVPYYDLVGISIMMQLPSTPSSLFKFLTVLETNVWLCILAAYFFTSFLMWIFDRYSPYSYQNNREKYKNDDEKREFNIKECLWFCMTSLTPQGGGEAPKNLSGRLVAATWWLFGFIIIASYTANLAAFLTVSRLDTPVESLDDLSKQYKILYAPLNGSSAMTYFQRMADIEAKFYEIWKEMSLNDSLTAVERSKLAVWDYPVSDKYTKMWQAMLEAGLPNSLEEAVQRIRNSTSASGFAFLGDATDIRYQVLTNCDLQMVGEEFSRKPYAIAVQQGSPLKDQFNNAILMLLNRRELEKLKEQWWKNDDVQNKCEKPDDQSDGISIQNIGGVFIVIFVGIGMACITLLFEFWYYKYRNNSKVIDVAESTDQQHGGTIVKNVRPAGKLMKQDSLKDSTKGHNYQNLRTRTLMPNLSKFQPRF
# T3 sequence (A0A6E8W6Y5 1-657 partner): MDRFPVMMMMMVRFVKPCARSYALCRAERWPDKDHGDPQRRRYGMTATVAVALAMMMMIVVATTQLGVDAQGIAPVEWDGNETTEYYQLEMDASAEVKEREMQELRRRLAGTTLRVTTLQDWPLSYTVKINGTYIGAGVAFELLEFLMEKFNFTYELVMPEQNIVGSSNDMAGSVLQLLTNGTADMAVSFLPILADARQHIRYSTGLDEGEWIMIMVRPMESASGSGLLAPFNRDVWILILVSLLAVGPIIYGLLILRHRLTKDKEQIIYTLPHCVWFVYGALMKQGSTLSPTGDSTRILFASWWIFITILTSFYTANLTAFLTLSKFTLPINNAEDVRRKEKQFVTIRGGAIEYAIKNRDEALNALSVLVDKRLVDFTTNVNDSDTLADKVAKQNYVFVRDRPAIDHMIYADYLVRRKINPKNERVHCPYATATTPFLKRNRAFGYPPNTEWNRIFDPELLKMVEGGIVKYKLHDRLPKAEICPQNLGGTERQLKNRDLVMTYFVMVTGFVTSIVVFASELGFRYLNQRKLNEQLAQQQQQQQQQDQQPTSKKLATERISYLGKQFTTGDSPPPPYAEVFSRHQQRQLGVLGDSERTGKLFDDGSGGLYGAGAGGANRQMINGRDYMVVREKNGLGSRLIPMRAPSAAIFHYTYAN
# [4] = biological target: T1, AgIR75k; test: two-electrode voltage clamp, Xenopus oocytes, […] single concentration
smiles,measurement,setting,value
CCCCCCCCC(=O)O [nonanoic acid],EC50,[1],35 µM
C1CCNC1 [pyrrolidine],EC50,[2],3.4 µM
same,EC50,[3],110 µM
CCCCCCCC(=O)O [octanoic acid],"two-electrode voltage clamp, Xenopus oocytes, 10^-4 M single concentration",[4],octanoic and nonanoic acids elicited the greatest inward currents
